Results from paper PMC5268383, “Inhibition of STAT3 by Anticancer Drug Bendamustine” (PLoS ONE, 2017).

What was measured:
[1] = target: T1, nuclear STAT3 of MDA-MB-468 cells (Homo sapiens, UniProt P40763); experiment: STAT3 DNA binding assay (TransAM ELISA); assay type: cell-based; details: MDA-MB-468, 24 h; BENDA 25, 50, 100 μM, HP2 100 μM
T1 construct: endogenous in cells; host or cells: MDA-MB-468
Method: The DNA-binding activity of STAT3 was evaluated with a TransAM ELISA kit (Active Motif, Carlsbad, CA, USA). The assay and nuclear extract preparation were performed according to the manufacturer’s instructions. Heat-denatured nuclear extract was used as a negative control. The nuclear extract (20 μg) was added to each well of a 96-well microtiter plate coated with immobilized oligonucleotides containing the STAT3 consensus binding site and incubated at room temperature for 1 h. They were incubated with anti-STAT3 antibody for 1 h at room temperature, followed by HRP-conjugated antibody for 1 h at room temperature. The developing solution was added, the reaction was terminated by the addition of stop solution, and the absorbance was measured at 450 nm with a reference wavelength of 655 nm (SpectraMax M5SK, Molecular Devices, Sunnyvale, CA, USA).

[2] = target: T2, rhSTAT3 (Homo sapiens, UniProt P40763); experiment: Competition assay with cysteine-blocking reagent Alexa Fluor 488 C5 maleimide; assay type: binding; details: 2 h, 10 μM Alexa Fluor 488 C5 maleimide
T2 construct: Full-length cDNAs were obtained from a human cDNA library by PCR; Avi-tag (biotinylated in BirA-BL21) (N); made in house; host or cells: Escherichia coli BirA-BL21
Method: rhSTAT3 (0.89 μM) in 100 mM HEPES was incubated with 10 μM Alexa Fluor 488 C5 maleimide (Invitrogen, Paisley, UK), a thiol-reactive probe, in the presence or absence of 50 or 100 μM BENDA or HP2 for 2 h at room temperature. Samples were diluted in SDS-PAGE sample buffer without boiling or 2-mercaptoethanol and run on an SDS-PAGE gel. The protein was transferred to a nitrocellulose membrane and then blotted with Ni-HRP. The Alexa-labeled rhSTAT3 was analyzed by fluorescence (excitation/emission: 493/516 nm) and western blotting with Ni-HRP.

T2 sequence (P40763 whole entry): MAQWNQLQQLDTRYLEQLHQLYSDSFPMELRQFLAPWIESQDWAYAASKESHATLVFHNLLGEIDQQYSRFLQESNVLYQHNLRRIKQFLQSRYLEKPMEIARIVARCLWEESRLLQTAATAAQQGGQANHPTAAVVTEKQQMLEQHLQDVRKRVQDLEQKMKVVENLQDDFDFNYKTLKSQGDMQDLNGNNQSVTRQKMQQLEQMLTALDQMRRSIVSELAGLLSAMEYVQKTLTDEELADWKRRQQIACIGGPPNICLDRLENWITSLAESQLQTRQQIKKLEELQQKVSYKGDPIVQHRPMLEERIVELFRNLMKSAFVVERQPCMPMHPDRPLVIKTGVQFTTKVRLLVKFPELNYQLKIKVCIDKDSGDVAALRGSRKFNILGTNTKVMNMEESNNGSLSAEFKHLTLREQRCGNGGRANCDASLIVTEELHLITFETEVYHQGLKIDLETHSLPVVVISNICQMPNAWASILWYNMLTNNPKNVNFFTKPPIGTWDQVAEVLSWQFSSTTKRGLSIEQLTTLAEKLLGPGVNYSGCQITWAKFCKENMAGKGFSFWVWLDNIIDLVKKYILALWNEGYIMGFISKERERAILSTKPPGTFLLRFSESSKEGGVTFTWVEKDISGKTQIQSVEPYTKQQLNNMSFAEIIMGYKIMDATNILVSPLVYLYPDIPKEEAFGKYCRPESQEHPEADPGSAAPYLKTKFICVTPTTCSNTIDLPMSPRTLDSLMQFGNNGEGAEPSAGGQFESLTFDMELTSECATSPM
T1 sequence (P40763 2-770 limits assumed): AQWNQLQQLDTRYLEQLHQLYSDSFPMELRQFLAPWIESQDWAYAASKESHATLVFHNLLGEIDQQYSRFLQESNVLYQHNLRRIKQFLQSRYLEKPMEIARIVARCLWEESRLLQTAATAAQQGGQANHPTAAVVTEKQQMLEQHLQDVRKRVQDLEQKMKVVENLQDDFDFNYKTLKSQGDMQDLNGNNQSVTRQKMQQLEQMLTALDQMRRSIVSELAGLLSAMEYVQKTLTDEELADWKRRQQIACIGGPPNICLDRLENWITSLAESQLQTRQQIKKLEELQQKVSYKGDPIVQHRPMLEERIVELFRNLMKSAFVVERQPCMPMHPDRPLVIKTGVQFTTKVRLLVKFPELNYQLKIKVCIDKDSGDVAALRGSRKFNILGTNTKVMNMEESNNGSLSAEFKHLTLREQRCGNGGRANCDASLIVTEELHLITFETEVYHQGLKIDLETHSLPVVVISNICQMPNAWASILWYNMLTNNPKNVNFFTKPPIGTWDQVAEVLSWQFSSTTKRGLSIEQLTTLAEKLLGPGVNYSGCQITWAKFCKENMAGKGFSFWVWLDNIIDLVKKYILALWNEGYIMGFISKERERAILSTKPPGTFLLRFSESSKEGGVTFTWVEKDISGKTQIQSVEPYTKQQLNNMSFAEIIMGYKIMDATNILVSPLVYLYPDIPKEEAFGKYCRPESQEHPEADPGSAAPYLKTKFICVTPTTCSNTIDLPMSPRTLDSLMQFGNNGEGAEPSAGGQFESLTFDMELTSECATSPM

For `Cn1c(CCCC(=O)O)nc2cc(N(CCCl)CCCl)ccc21` [BENDA, 4-{5-[bis(2-chloroethyl)amino]-1-methyl-2-benzimidazolyl} butyric acid], which “Inhibition of STAT3 binding to oligonucleotides containing STAT3 consensus binding site” value [1] is on record?
Its value is “inhibited”.

And the “Fluorescence intensity of Alexa-labeled rhSTAT3 (reduced to)” value ([2]; 50 μM compound)?
The value was 62%.

And the “Fluorescence intensity of Alexa-labeled rhSTAT3 (reduced to)” value ([2]; 100 μM compound)?
The value was 52%.
